This note sets out measurements from a compilation of properties of binary mixtures (doi:10.1016/j.molliq.2016.09.008).

A short description of the data set: xn = mol fraction of the nth substance listed. To be noted: 298.15 K, 101 kPa.

Take `CC[NH3+].O=[N+]([O-])[O-]` + C[N+](=O)[O-]: the electrical conductivity by setting is: (x1 = 0.0034) 0.0549 S/m; (x1 = 0.0062) 0.0721 S/m; (x1 = 0.0112) 0.0945 S/m; (x1 = 0.0129) 0.1 S/m; (x2 = 0.0498) 2.34 S/m; (x2 = 0.1048) 2.4 S/m. The electrical conductivity came out at 2.56 S/m (x2 = 0.2032), 2.7 S/m (x2 = 0.3007), 2.94 S/m (x2 = 0.3874) and 2.71 S/m (x2 = 0.4983). In addition, the viscosity (commonly the internal friction of a fluid under shear) runs as follows: (x1 = 0.0034) 0.652 mPa·s; (x1 = 0.0062) 0.662 mPa·s; (x1 = 0.0112) 0.679 mPa·s; (x1 = 0.0129) 0.683 mPa·s; (x2 = 0.0498) 34.1 mPa·s; (x2 = 0.1048) 31.5 mPa·s. For the same molecule, the viscosity is on record as 23.9 mPa·s (x2 = 0.2032), 20.3 mPa·s (x2 = 0.3007), 15.3 mPa·s (x2 = 0.3874) and 8.52 mPa·s (x2 = 0.4983).
As for `C[N+](=O)[O-]` + CC[NH3+].O=[N+]([O-])[O-], where the note is “x1 = 1”, the electrical conductivity was 0.0031 S/m and the viscosity was 0.637 mPa·s.
